Reference: patent US20100216788A1, “FUSED HETEROCYCLIC COMPOUND” (TAKEDA PHARMACEUTICAL COMPANY LIMITED, priority 2005, published 2010)
Where a name gives a salt, the structure may show the parent alone.

Key:
[1] = molecular target: T1, HER2 intracellular domain (Homo sapiens, UniProt P04626); experiment: Determination of HER2 kinase inhibitory activity; assay type: biochemical; details: test compound at 1.0 μM, poly-Glu:Tyr (4:1) substrate, [γ-32P]ATP, 25° C. 10 min; for inhibition at 1 µM: read-out: Inhibitory rate (%) at 1.0 μM
T1 construct: made in house; host or cells: SF-21 insect cells infected with recombinant baculovirus BAC-HER2 (pFASTBAC1)
Experimental: Human HER2 gene was cloned by RT-PCR using total RNA prepared from MCF7 cells as a template. The primer used for RT-PCR was prepared from nucleotide sequence (Genbank Accession No. M11730) information of HER2 gene by adding a nucleotide sequence encoding DYKDDDD peptide and a restriction enzyme recognition sequence to a nucleotide sequence (2176-3918 of Genbank Accession No. M11730) encoding the HER2 intracellular domain region, so that the protein contains an N-terminal DYKDDDD peptide tag. The primer nucleotide sequence is shown below.
The RT reaction was conducted using SuperScript First-Strand Synthesis System for RT-PCR (Invitrogen) and the PCR reaction was conducted using a KOD-plus kit (TOYOBO). The obtained PCR product was electrophoresed on agarose gel (1%), the DNA fragment amplified by PCR was recovered from the gel, and then digested with restriction enzymes Sal I and Sph I. The DNA treated with the restriction enzymes was electrophoresed on agarose gel (1%), and the obtained DNA fragment was recovered and ligated to plasmid pFASTBAC1 (Invitrogen) digested with restriction enzymes Sal I and Sph I to give expression plasmid pFB-HER2. The nucleotide sequence of the insertion fragment was confirmed and found to be identical with the nucleotide sequence (2176-3918 of Genbank Accession M11730) of HER2 intracellular domain. Furthermore, using BAC-TO-BAC Baculovirus Expression System (Invitrogen), recombinant baculovirus BAC-HER2 was prepared.
SF-21 cells were sown at 1×10^6 cells/mL to Sf-900II SFM medium (1 L, Invitrogen) containing 10% fetal bovine serum (trace), 50 mg/L gentamicin (Invitrogen) and 0.1% Pluronic F-68 (Invitrogen), and shaking culture was performed using a 2 L volume Erlenmeyer flask at 27° C., 100 rpm. After culturing for 24 hr, recombinant baculovirus BAC-HER2 (13.4 mL) was added, and the mixture was further cultured for 3 days. The culture medium was centrifuged at 2,000 rpm for 5 min. to give virus-infected cells. The infected cells were washed with a phosphate buffered saline (Invitrogen), centrifuged under the same conditions, and the cells were preserved at −80° C. The cryopreserved cells were thawed in ice, suspended in buffer A (50 mM Tris buffer (30 mL, pH 7.4) containing 20% glycerol, 0.15 M NaCl) supplemented with Complete Protease Inhibitor (Boehringer), and ruptured 3 times with a Polytron homogenizer (Kinematica) at 20,000 rpm for 30 sec. The rupture medium was clarified by centrifugation at 40,000 rpm for 30 min. and filtered with a 0.45 μm filter. The filtrate was passed through a column packed with Anti-FLAG M2 Affinity Gel (4 mL, Sigma) at a flow rate of about 0.5 mL/min. The column was washed with buffer A, and eluted with buffer A containing 100 μg/mL of FLAG peptide. The eluate was concentrated with Vivaspin 20 (Vivascience) having a molecular weight cut off of 30K. The concentrate was purified by gel filtration using Hi Load Superdex 200pg 16/60 (Amersham Bioscience) equilibrated with buffer A. The fractions containing HER2 intracellular domain were collected, glycerol was added to the final concentration of 50% and cryopreserved at −80° C.
A test compound dissolved in dimethyl sulfoxide (DMSO) was diluted with a buffer for kinase reaction (50 mM Tris-HCl (pH7.5), 5 mM MgCl2, 5 mM MnCl2, 2 mM dithiothreitol, 0.01% Tween-20). To this compound solution (10 μL) was added a buffer for kinase reaction (20 μL) containing 5 μg/mL of HER2 intracellular domain obtained in Experimental Example 1B and 12.5 μg/mL of polypeptide substrate poly-Glu:Tyr (4:1) (Sigma). To the obtained mixture was added 20 μL of ATP solution (1.25 μM ATP, 0.05 μCi [γ-^32P]ATP), the mixture was allowed to react at 25° C. for 10 min. and the reaction was quenched with 50 μL of 20% TCA solution. The reaction solution was allowed to stand at 4° C. for 20 min., and the acid insoluble fraction was transferred to GF/C filter (PerkinElmer) using cell harvester (PerkinElmer) and washed with 250 mM phosphoric acid solution. […]

[2] = test system: human breast cancer cell BT-474; experiment: Inhibitory action on breast cancer cell BT-474 proliferation in vitro; assay type: cell-based; details: 120 h, BT-474 cells, cultured 5 days with compound, SRB staining of cell protein
Experimental: A suspension of human breast cancer cell. BT-474 (100 μl (6,000 cells)) were seeded to attach in a 96-well microplate and cultured in an incubator (37° C., 5% carbon dioxide). On the following day, 100 μl of a solution of each test compound previously diluted serially in 2-fold, was added to give indicated dose, and the cells were cultured for 5 days. After the culture medium containing the test compound was removed, the cells were washed and fixed with 50% trichloroacetic acid, after which a 0.4% (w/v) SRB solution (dissolved in 1% acetic acid) was added to stain the cell protein (Skehan et al., Journal of the National Cancer Institute, Vol. 82, pp. 1107-1112, 1990). After washing with a 1% acetic acid solution, 100 μl of Tris solution (10 mM) was added to extract the pigment and the absorbance was measured at a wavelength of 550 nm to quantify the amount of cells as protein content. Taking as 100% the protein content for the control group, which received no test compound solution, the ratio of the residual protein content for, each treatment group was determined, and the compound concentration required to achieve 50% suppression of the residual cell content relative to the control (IC50 value) was calculated.

T1 sequence (P04626 676-1255 limits assumed): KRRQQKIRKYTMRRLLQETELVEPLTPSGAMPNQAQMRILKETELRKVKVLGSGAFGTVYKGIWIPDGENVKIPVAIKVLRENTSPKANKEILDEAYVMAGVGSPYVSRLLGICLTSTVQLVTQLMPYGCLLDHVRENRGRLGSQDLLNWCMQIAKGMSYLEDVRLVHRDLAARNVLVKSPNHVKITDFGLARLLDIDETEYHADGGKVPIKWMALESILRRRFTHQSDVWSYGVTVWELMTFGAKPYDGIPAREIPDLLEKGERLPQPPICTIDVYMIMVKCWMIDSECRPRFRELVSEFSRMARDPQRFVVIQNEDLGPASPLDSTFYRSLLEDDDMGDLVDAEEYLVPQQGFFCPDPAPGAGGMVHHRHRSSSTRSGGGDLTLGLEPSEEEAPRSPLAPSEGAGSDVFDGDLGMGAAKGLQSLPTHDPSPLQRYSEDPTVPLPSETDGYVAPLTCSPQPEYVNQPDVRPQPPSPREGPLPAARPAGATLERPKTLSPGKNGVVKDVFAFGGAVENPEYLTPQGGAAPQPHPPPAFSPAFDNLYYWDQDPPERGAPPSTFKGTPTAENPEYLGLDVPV

SMILES	inhibition at 1 µM [1] [%]	IC50 [2] [µM]	Inhibitory rate (%) at 1.0 μM [1] [%]
CC(C)(C(=O)NCCn1ccc2ncnc(Nc3ccc(Oc4cccc(Cl)c4)c(Cl)c3)c21)S(C)(=O)=O [Example A-1, N-[2-(4-{[3-chloro-4-(3-chlorophenoxy)phenyl]amino}-5H-pyrrolo[3,2-d]pyrimidin-5-yl)ethyl]-2-methyl-2-(methylsulfonyl)propanamide]	98	< 0.1	–
CC(C)(C(=O)NCCn1ccc2ncnc(Nc3ccc(Oc4cccc(Cl)c4)c(Cl)c3)c21)S(C)(=O)=O.Cc1ccc(S(=O)(=O)O)cc1 [Example A-15, N-[2-(4-{[3-chloro-4-(3-chlorophenoxy)phenyl]amino}-5H-pyrrolo[3,2-d]pyrimidin-5-yl)ethyl]-2-methyl-2-(methylsulfonyl)propanamide p-toluenesulfonate]	–	–	99
OCCOCCn1ccc2ncnc(Nc3cnc(Oc4cccc(C(F)(F)F)c4)c(Cl)c3)c21 [Example B-1, 2-{2-[4-({5-chloro-6-[3-(trifluoromethyl)phenoxy]pyridin-3-yl}amino)-5H-pyrrolo[3,2-d]pyrimidin-5-yl]ethoxy}ethanol]	99	–	–
CC(C)(C)NC(=O)c1cccc(Oc2ccc(Nc3ncnc4ccn(CCO)c34)cc2Cl)c1 [Example C-26, N-(tert-butyl)-3-(2-chloro-4-{[5-(2-hydroxyethyl)-5H-pyrrolo[3,2-d]pyrimidin-4-yl]amino}phenoxy)benzamide]	98	–	–
O=C(Nc1cccc(Oc2ccc(Nc3ncnc4ccn(CCOCCO)c34)cc2Cl)c1)C1CC1 [Example C-45, N-{3-[2-chloro-4-({5-[2-(2-hydroxyethoxy)ethyl]-5H-pyrrolo[3,2-d]pyrimidin-4-yl}amino)phenoxy]phenyl}cyclopropanecarboxamide]	97	< 0.1	–
CC(C)(C)NC(=O)Cc1cccc(Oc2ccc(Nc3ncnc4ccn(CCO)c34)cc2Cl)c1 [Example C-89, N-(tert-butyl)-2-[3-(2-chloro-4-{[5-(2-hydroxyethyl)-5H-pyrrolo[3,2-d]pyrimidin-4-yl]amino}phenoxy)phenyl]acetamide]	100	–	–
CS(=O)(=O)CC(=O)NCCn1ccc2ncnc(Nc3ccc(Oc4cccc(OCC5CC5)c4)c(Cl)c3)c21 [Example C-97, N-{2-[4-({3-chloro-4-[3-(cyclopropylmethoxy)phenoxy]phenyl}amino)-5H-pyrrolo[3,2-d]pyrimidin-5-yl]ethyl}-2-(methylsulfonyl)acetamide hydrochloride]	–	< 0.1	–
Cc1cc(Nc2ncnc3ccn(CCNC(=O)CS(C)(=O)=O)c23)ccc1Oc1cccc(OCC(F)(F)F)c1 [Example C-116, 2-(methylsulfonyl)-N-{2-[4-({3-methyl-4-[3-(2,2,2-trifluoroethoxy)phenoxy]phenyl}amino)-5H-pyrrolo[3,2-d]pyrimidin-5-yl]ethyl}acetamide hydrochloride]	–	< 0.1	–
CC(C)(C)CC(=O)c1cccc(Oc2ccc(Nc3ncnc4ccn(CCO)c34)cc2Cl)c1 [Example E-22, 1-[3-(2-chloro-4-{[5-(2-hydroxyethyl)-5H-pyrrolo[3,2-d]pyrimidin-4-yl]amino}phenoxy)phenyl]-3,3-dimethylbutan-1-one]	99	–	–
CC(C)(O)CC(=O)NCCn1ccc2ncnc(Nc3ccc4c(cnn4Cc4cccc(F)c4)c3)c21 [Example G-5, N-[2-(4-{[1-(3-fluorobenzyl)-1H-indazol-5-yl]amino}-5H-pyrrolo[3,2-d]pyrimidin-5-yl)ethyl]-3-hydroxy-3-methylbutanamide]	93	< 0.1	–
CC(C)(C)NC(=O)c1cccc(Cn2ncc3cc(Nc4ncnc5ccn(CCO)c45)ccc32)c1 [Example G-14, N-(tert-butyl)-3-[(5-{[5-(2-hydroxyethyl)-5H-pyrrolo[3,2-d]pyrimidin-4-yl]amino}-1H-indazol-1-yl)methyl]benzamide]	100	–	–
